This passage reports TGI and GI50 results from PubChem BioAssay (NCI).

What all share (experiment): DTP human tumour cell line panel, 48 h
Test [1] concerns A549 NSCLC.
The test system of test [2] is SF-295 CNS.
Test [3] relates to EKVX NSCLC.
The subject of test [4] is SF-539 CNS.
Test [5] has as its system MDA-MB-231 breast.
Test [6] deals with UACC-257 melanoma.
In test [7] the test system is OVCAR-3 ovarian.
Test [8] concerns OVCAR-5 ovarian.
For test [9], the system named is HOP-92 NSCLC.
The test system of test [10] is NCI-H226 lung.

Values joined by “and” are separate entries in the source; they are usually repeats but may differ in a detail not shown here. Identical values can stand only once.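 Protocol summary: plate cells (96-well), add compound at 5 concentrations, incubate 48 h, interpolate endpoints linearly. GI50: concentration for 50% inhibition of growth. Definition used: TGI = concentration required for complete inhibition of growth.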 Where only a bound is given, the exact number is not on record here.

On to `CNC(=O)OCc1c(COC(=O)NC)c(C)n(-c2ccc(Br)cc2)c1C`, for which the TGI in test [1] was 38.1 µM; in [2], 31.9 µM; in test [3], over 100 µM; in [4] it was 30.3 µM; in [5] it was 30.5 µM; in test [6], 32.3 µM. For the same compound, the TGI in [7] amounted to 30.4 µM; in test [8], 77.2 µM; in test [9], 31 µM; in test [10], 4.59 µM.
`Cc1ccc(C(=O)Nc2cccc(C(F)(F)F)c2)cc1Nc1nc(-c2cccnc2)nc2c1cnn2C`: the GI50 was 3.2 µM and 2.11 µM in [1]; 2.12 µM and 1.84 µM in test [2]; 3.22 µM and 2.59 µM in [3]; 2.59 µM and 1.22 µM in test [4]; 0.769 µM and 0.348 µM in test [5]; 2.02 µM and 0.875 µM in test [6]. In addition, the GI50 in [7] is 3.86 µM and 2.53 µM; in test [8], 1.36 µM and 0.845 µM; in test [9], 1.31 µM and 0.534 µM; in test [10] it was 2.3 µM and 1.63 µM. In addition, the TGI in test [1] was 16.1 µM and > 10 µM; in [2] it was 4.99 µM and 4.47 µM; in test [3], 21.3 µM and > 10 µM; in [4] it was 13.3 µM and 3.28 µM; in test [5], 3.21 µM and 3.95 µM; in [6] it was 8.28 µM and 4.76 µM. The TGI in test [7] is 17.4 µM and 7.27 µM; in test [8] it was 15.1 µM and > 10 µM; in test [9] it was 5.13 µM and 5.01 µM; in test [10] it was 7.45 µM and 5.64 µM.
Turning to `CC1=C(CCC(C)N(C)Cc2ccc(OCCCN3CCCC3)cc2)C(C)(C)CCC1` (stereo not given), the GI50 in [1] was 6.48 µM; in test [2], 1.89 µM; in [3], 9.07 µM; in test [4], 1.66 µM; in test [5], 1.89 µM; in test [6], 2.25 µM. The GI50 is 5.72 µM in test [7], 3.2 µM in test [8], 2.83 µM in test [9] and 18.8 µM in [10]. The TGI came to 20.5 µM in [1]; 4.09 µM in [2]; 23.2 µM in [3]; 3.28 µM in test [4]; 4.48 µM in [5]; 4.12 µM in test [6]. The TGI in [7] is 19.3 µM; in test [8] it was 11.1 µM; in test [9], 13.1 µM; in [10] it was 37.3 µM.
On to `C[C@]12CC[C@H]3[C@@H](CCC4=CC(=O)CC[C@@H]43)[C@@H]1CC[C@@H]2OC(=O)CCc1ccccc1`, for which the GI50 in [1] was 25.1 µM; in [2] it was 15.5 µM; in [3], 2.23 µM; in test [4], 16.3 µM; in [5], 18.9 µM; in test [6] it was 24.6 µM. The GI50 is 15.8 µM in test [7], 42.8 µM in [8], 20.1 µM in test [9] and 16.5 µM in test [10]. Further, the TGI was over 73.7 µM in [1]; 30.6 µM in test [2]; 28.7 µM in [3]; 30.5 µM in test [4]; 42.2 µM in test [5]; 59.5 µM in test [6]. Moreover, the TGI is 30 µM in [7], over 81.5 µM in test [8], 64.4 µM in [9] and 34 µM in [10].
Turning to `N=C(N)c1ccc(N2CCCN(c3ccc(C(=N)N)cc3)CC2)cc1`, the GI50 in test [1] was 40.5 µM; in test [2], 32.6 µM; in [3] it was 42.4 µM; in test [4], 41.5 µM; in test [5], over 100 µM; in [6] it was over 100 µM. The GI50 in test [7] is 72.4 µM; in test [8], over 100 µM; in [9], 89.6 µM; in test [10] it was 84.7 µM. For the same compound, the TGI in test [1], in test [2], in test [3], in test [4], in test [5] and in test [6] was over 100 µM in each case. The TGI in test [7], in [8], in test [9] and in test [10] was over 100 µM each time.
Consider `C=CC(=O)Nc1cccc(C)c1Nc1cc(-c2cccnc2Cc2c(C)c(OC)cc(OC)c2C)ncn1`, for which the GI50 in test [1] was 16.2 µM; in test [2], 6.47 µM; in test [3], 28.8 µM; in test [4], 3.47 µM; in [5], 5.65 µM; in test [6], 23.7 µM. The GI50 in test [7] is 7.04 µM; in [8], 27.4 µM; in [9], 9.91 µM; in test [10], 10.5 µM. The TGI is over 100 µM in test [1]; 73.9 µM in test [2]; over 100 µM in [3]; 38.2 µM in test [4]; 70.9 µM in [5]; over 100 µM in test [6]. The TGI in test [7] was 38.9 µM; in test [8], over 100 µM; in [9] it was 47.3 µM; in [10], 63 µM.
Take `COC(=O)Cn1c2c(c3c(O)cccc31)C(=O)c1ccccc1-2`: the GI50 is over 100 µM in [1]; over 100 µM in test [2]; over 100 µM in test [3]; over 100 µM in test [4]; 40.4 µM in [5]; over 100 µM in [6]. For the same compound, the GI50 is over 100 µM in test [7], over 100 µM in test [8], 27 µM in test [9] and over 100 µM in test [10]. The TGI in test [1], in test [2], in [3], in test [4], in test [5] and in test [6] was over 100 µM throughout. In addition, the TGI in test [7], in test [8], in test [9] and in test [10] was over 100 µM each time.
